Earlier results in patent publication US9861605B2, “Enriched injectable emulsion containing selected fatty acid triglycerides” (STABLE SOLUTIONS LLC, priority 2011, dated 2018).

Settings: against water

interfacial tension	SMILES
approximately 8.2 dyne/cm	CCCCCCCC(=O)O [caprylic acid]
15.6 dyne/cm	CCCCCCCC/C=C\CCCCCCCC(=O)O [oleic acid]
